Laboratory results taken from PubChem BioAssay AID1117361 (Southern Research Institute, 2015).

Each compound was assayed against Protein Tat (Human immunodeficiency virus type 1 group M subtype B (isolate HXB2)) (UniProt P04608) (assay: inhibitors of Tat binding to TAR RNA, dose response, counter-screen for Vif-APOBEC3G degradation inhibitor project, biochemical, fluorescence polarization, FAM-labeled TAR RNA (AID 1117361)).
Sequence of Protein Tat (Human immunodeficiency virus type 1 group M subtype B (isolate HXB2)) (P04608 whole entry, looked up): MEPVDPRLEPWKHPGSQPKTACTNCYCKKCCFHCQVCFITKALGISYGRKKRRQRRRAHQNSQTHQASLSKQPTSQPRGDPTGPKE

Row | SMILES | IC50 [µM]
1 | C=CCSC1=N/C(=C\C=C\c2ccco2)C(=O)S1 | 1.89
2 | CNc1ccc(Br)cc(C(=O)/C=C/c2ccc(OC)cc2)c1=O | 9.15
3 | CN(C)c1cc(Cl)c2nonc2c1N | 87.2
4 | CC(C)n1c(=NC(=O)c2ccco2)c(C#N)cc2c(=O)n3ccccc3cc21 | 95.9
5 | Nc1cc(N)c(OCC(F)(F)F)cc1OCC(F)(F)F | 11.4
6 | CCn1c(C)nc2cc(C(=O)N/N=C/c3ccc(O)c(O)c3O)ccc21 | 15.3
7 | C=C(C)C(=O)Nc1cccc(C2=NOC3(C2)C[C@H](C(N)=O)N(C(=O)COc2ccc(Cl)cc2)C3)c1 (some centres not stated) | 17.3
8 | O=C1NC(c2ccc(Br)cc2)=N/C1=C/c1ccco1 | 6.78
9 | O=C(O)CSc1c2c(nc3cc(C(=O)N4CCOCC4)ccc13)CCCC2 | 12.2
10 | CN1C(=O)/C(=C/c2ccco2)SC1=Nc1cccc(C(=O)O)c1 | 7.93
11 | Oc1ccc(NCc2cccc(OCc3ccccc3)c2)cc1 | 66.7
12 | O=C(O)c1cccc(-n2cccc2/C=C/[N+](=O)[O-])c1 | 5.57
13 | CCN(CC)c1ccc(NC2CC(=O)N(CCc3ccc(OC)cc3)C2=O)cc1 (configuration not stated) | 27.3
14 | CC1(C)OC(=O)C(=C2CCCN2)C(=O)O1 | 0.882
15 | Nc1cccc2c(O)cc(S(=O)(=O)O)cc12 | 19.3
16 | O=C1NC(=S)S/C1=C\c1ccc(SCc2ccco2)o1 | 0.926
17 | Clc1ccc(OCc2nn3c(-c4ccco4)nnc3s2)c(Cl)c1 | 51.5
18 | COc1cc(C2C(C#N)=C(N)N(c3cccnc3)C3=C2C(=O)CCC3)ccc1O (configuration not stated) | 43.4
19 | CCc1cc(=O)oc2cc(C)c(CN3CCCC3)c(O)c12 | 5.84
20 | CCOC(=O)N1CC=C2C(C#N)=C(N)C(C#N)(C#N)[C@H](c3cccs3)[C@H]2C1 | 15.3
21 | COc1ccccc1C1C=C(c2ccc(C)cc2)Nc2nnnn21 (configuration not stated) | 84.4
22 | COc1ccc(NC(=O)c2cccc(S(=O)(=O)Nc3ccc(Br)cc3)c2)cn1 | 2.15
23 | O=c1[nH]nc(CNc2ccc(O)cc2)c2ccccc12 | 33.7
24 | O=C1CC(/C=C/c2ccco2)=Nc2ccccc2N1 | 6.84

Row | SMILES | IC50 [µM]
25 | O=C(O)C1Nc2c(O)cccc2C2C=CCC12 (configuration not stated) | 0.703
26 | O=C(Nc1ccccc1N1CCCC1)c1ccc(Br)o1 | 59.6
27 | COC(=O)\C(C(C)=O)=C(/C=C/C=C/C=C/N(C)C)N(C)C | 56.3
28 | O=C1/C(=C\c2ccco2)SC(=S)N1c1ccccc1 | 9.64
29 | O=C(O)c1ccc(-n2cccc2/C=N\NC(=O)c2cc3cc(Br)ccc3o2)cc1 | 13.8
30 | O=C1/C(=C\c2ccco2)SC(=S)N1Cc1ccccc1 | 17.5
31 | O=C1/C(=C/c2ccco2)SC(=S)N1c1cccnc1 | 3.9
32 | O=C(Nc1ccc2nc(-c3ccco3)c(-c3ccco3)nc2c1)NC1CC1 | 1.83
33 | O=C(OC1CCCCC1)c1ccc2c(c1)C1C=CCC1C(C(=O)O)N2 (configuration not stated) | 2.26
34 | CC(=O)C1=C(C)NC(C)=C(C(C)=O)C1c1cccs1 | 91.4
35 | CNc1ccc(Br)cc(C(=O)/C=C/c2ccc(Cl)cc2Cl)c1=O | 9.56
36 | O=C(N/N=C/C=C\c1ccco1)c1cccnc1 | 3.91
37 | O=C(NN1C(=O)/C(=C/C=C/c2ccco2)SC1=S)c1ccncc1 | 2.69
38 | O=C1NC(=O)N(Cc2ccccc2)C(=O)/C1=C\C=C\c1ccco1 | 30.9
39 | Cc1ccc(-n2nc(C)c(C3C(C#N)=C(N)Oc4c3c(=O)oc3ccccc43)c2Cl)cc1 (configuration not stated) | 25.2
40 | Clc1ccc(-c2cn3cccnc3n2)cc1Cl | 90.9
41 | O=S(=O)(c1ccc(OCC(O)CN2CCC(Cc3ccccc3)CC2)cc1)N1CCOCC1 (configuration not stated) | 10.3
42 | O=S(=O)(O)c1cc(O)c2cc(Nc3ccccc3)ccc2c1 | 20.5
43 | O=[N+]([O-])c1ccc(-c2ccc(/C=N/c3c(-c4ccco4)nc4ccccn34)o2)cc1 | 1.4
44 | O=S(=O)(Nc1nccs1)c1ccc(Nc2nnc(-c3ccccc3)c3ccccc23)cc1 | 47.7
45 | CS(=O)(=O)c1ccc2c(c1)SC1=NC(=O)/C(=C/c3ccco3)C(=N)N12 | 10.4
46 | COc1ccc(/C=N/NC(=O)c2cc(O)c(O)c(O)c2)cc1Cn1cc([N+](=O)[O-])cn1 | 46.7
47 | COc1cc2[nH]c(Cl)c([N+](=O)[O-])c2cc1OC | 24.3
